Laboratory results taken from the supplement of paper PMC10307832.

Columns and labels:
Experiment in all cases: relative viability (nuclei count vs DMSO), 5 days (fraction); higher = more cells survive
[1] = test system: NCI-H2009
How it was run: (§1)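 Relative viability equals treated-well nuclei counts divided by vehicle-well nuclei counts. Counts came from 4× images of lung cancer cell lines grown in 1536-well plates for 5 days after pin-tool dosing on the day after seeding. Dosing used one drug alone or a fixed anchor-drug dose plus five library-drug doses (not always all listed) in √10 steps, and values are medians of duplicate plates.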

[2] = test system: EBC-1
How it was run: as §1

[3] = test system: NCI-H647
How it was run: as §1

[4] = test system: NCI-H1648
How it was run: as §1

[5] = test system: NCI-H1703
How it was run: as §1

[6] = test system: A549
How it was run: as §1

[7] = test system: NCI-H2405
How it was run: as §1

[8] = test system: Calu-6
How it was run: as §1

[9] = test system: NCI-H1299
How it was run: as §1

[10] = test system: LOU-NH91
How it was run: as §1

[11] = test system: IA-LM
How it was run: as §1

`Cc1csc(=NC2CCCCC2)n1/N=C/c1ccc(O)c(O)c1O` [MIM1] + O=C(c1cc(Cc2n[nH]c(=O)c3ccccc23)ccc1F)N1CCN(C(=O)C2CC2)CC1 [Olaparib] (partner 8 µM) gave a relative viability ([1]; first compound 0.2 µM) of 0.662, a relative viability ([1]; first compound 0.6325 µM) of 0.655 and a relative viability ([1]; first compound 2 µM) of 0.723. It also gave a relative viability ([1]; first compound 6.325 µM) of 0.504, a relative viability ([1]; first compound 20 µM) of 0.482 and a relative viability ([2]; first compound 0.2 µM) of 0.559. The relative viability ([2]; first compound 0.6325 µM) was 0.742, the relative viability ([2]; first compound 2 µM) was 0.673 and the relative viability ([2]; first compound 6.325 µM) was 0.422. It also gave a relative viability ([2]; first compound 20 µM) of 0.338, a relative viability ([3]; first compound 0.2 µM) of 0.611 and a relative viability ([3]; first compound 0.6325 µM) of 0.53. It also gave a relative viability ([3]; first compound 2 µM) of 0.697, a relative viability ([3]; first compound 6.325 µM) of 0.369 and a relative viability ([3]; first compound 20 µM) of 0.0666. The relative viability ([4]; first compound 0.2 µM) was 1, the relative viability ([4]; first compound 0.6325 µM) was 1.03 and the relative viability ([4]; first compound 2 µM) was 0.697. For the same compound, the relative viability ([4]; first compound 6.325 µM) was 0.611, the relative viability ([4]; first compound 20 µM) was 0.298 and the relative viability ([5]; first compound 0.2 µM) was 0.54. It also gave a relative viability ([5]; first compound 0.6325 µM) of 0.738, a relative viability ([5]; first compound 2 µM) of 0.509 and a relative viability ([5]; first compound 6.325 µM) of 0.369. For the same compound, the relative viability ([5]; first compound 20 µM) was 0.0913, the relative viability ([6]; first compound 0.2 µM) was 0.277 and the relative viability ([6]; first compound 0.6325 µM) was 0.282. For the same compound, the relative viability ([6]; first compound 2 µM) was 0.304, the relative viability ([6]; first compound 6.325 µM) was 0.181 and the relative viability ([6]; first compound 20 µM) was 0.0693. It also gave a relative viability ([7]; first compound 0.2 µM) of 0.881, a relative viability ([7]; first compound 0.6325 µM) of 0.918 and a relative viability ([7]; first compound 2 µM) of 0.827. For the same compound, the relative viability ([7]; first compound 6.325 µM) was 0.681, the relative viability ([7]; first compound 20 µM) was 0.369 and the relative viability ([8]; first compound 0.6325 µM) was 0.563. The relative viability ([8]; first compound 2 µM) was 0.614, the relative viability ([8]; first compound 6.325 µM) was 0.288 and the relative viability ([8]; first compound 20 µM) was 0.152. For the same compound, the relative viability ([9]; first compound 0.2 µM) was 0.942, the relative viability ([9]; first compound 0.6325 µM) was 0.954 and the relative viability ([9]; first compound 2 µM) was 1.03. It also gave a relative viability ([9]; first compound 6.325 µM) of 0.928, a relative viability ([9]; first compound 20 µM) of 0.728 and a relative viability ([10]; first compound 0.2 µM) of 0.92. It also gave a relative viability ([10]; first compound 0.6325 µM) of 0.922, a relative viability ([10]; first compound 2 µM) of 0.596 and a relative viability ([10]; first compound 6.325 µM) of 0.589. It also gave a relative viability ([10]; first compound 20 µM) of 0.369, a relative viability ([11]; first compound 0.2 µM) of 0.947 and a relative viability ([11]; first compound 0.6325 µM) of 0.854. For the same compound, the relative viability ([11]; first compound 2 µM) was 0.829, the relative viability ([11]; first compound 6.325 µM) was 0.518 and the relative viability ([11]; first compound 20 µM) was 0.192.

Compound `CCNC(=O)c1noc(-c2cc(C(C)C)c(O)cc2O)c1-c1ccc(CN2CCOCC2)cc1` [Luminespib] + O=C(c1cc(Cc2n[nH]c(=O)c3ccccc23)ccc1F)N1CCN(C(=O)C2CC2)CC1 [Olaparib] (partner 8 µM) has a relative viability ([1]; first compound 0.002 µM) of 0.763, a relative viability ([1]; first compound 0.006325 µM) of 0.67 and a relative viability ([1]; first compound 0.02 µM) of 0.701. For the same compound, the relative viability ([1]; first compound 0.06325 µM) was 0.409, the relative viability ([1]; first compound 0.2 µM) was 0.0486 and the relative viability ([2]; first compound 0.002 µM) was 0.794. The relative viability ([2]; first compound 0.006325 µM) was 0.586, the relative viability ([2]; first compound 0.02 µM) was 0.572 and the relative viability ([2]; first compound 0.06325 µM) was 0.122. The relative viability ([2]; first compound 0.2 µM) was 0.124, the relative viability ([3]; first compound 0.002 µM) was 0.536 and the relative viability ([3]; first compound 0.006325 µM) was 0.577. For the same compound, the relative viability ([3]; first compound 0.02 µM) was 0.273, the relative viability ([3]; first compound 0.06325 µM) was 0.0706 and the relative viability ([3]; first compound 0.2 µM) was 0.059. For the same compound, the relative viability ([4]; first compound 0.002 µM) was 0.765, the relative viability ([4]; first compound 0.006325 µM) was 0.653 and the relative viability ([4]; first compound 0.02 µM) was 0.784. For the same compound, the relative viability ([4]; first compound 0.06325 µM) was 0.505, the relative viability ([4]; first compound 0.2 µM) was 0.484 and the relative viability ([5]; first compound 0.002 µM) was 0.401. For the same compound, the relative viability ([5]; first compound 0.006325 µM) was 0.358, the relative viability ([5]; first compound 0.02 µM) was 0.651 and the relative viability ([5]; first compound 0.06325 µM) was 0.127. It also gave a relative viability ([5]; first compound 0.2 µM) of 0.104, a relative viability ([6]; first compound 0.002 µM) of 0.282 and a relative viability ([6]; first compound 0.006325 µM) of 0.174. The relative viability ([6]; first compound 0.02 µM) was 0.194, the relative viability ([6]; first compound 0.06325 µM) was 0.0387 and the relative viability ([6]; first compound 0.2 µM) was 0.0323. For the same compound, the relative viability ([7]; first compound 0.002 µM) was 0.948, the relative viability ([7]; first compound 0.02 µM) was 0.813 and the relative viability ([7]; first compound 0.06325 µM) was 0.181. For the same compound, the relative viability ([7]; first compound 0.2 µM) was 0.182, the relative viability ([8]; first compound 0.002 µM) was 0.652 and the relative viability ([8]; first compound 0.006325 µM) was 0.545. It also gave a relative viability ([8]; first compound 0.02 µM) of 0.696, a relative viability ([8]; first compound 0.06325 µM) of 0.111 and a relative viability ([8]; first compound 0.2 µM) of 0.098. For the same compound, the relative viability ([9]; first compound 0.002 µM) was 0.954, the relative viability ([9]; first compound 0.006325 µM) was 0.921 and the relative viability ([9]; first compound 0.02 µM) was 0.959. The relative viability ([9]; first compound 0.06325 µM) was 0.467, the relative viability ([9]; first compound 0.2 µM) was 0.147 and the relative viability ([10]; first compound 0.002 µM) was 0.967. The relative viability ([10]; first compound 0.006325 µM) was 0.89, the relative viability ([10]; first compound 0.02 µM) was 0.445 and the relative viability ([10]; first compound 0.06325 µM) was 0.351. The relative viability ([10]; first compound 0.2 µM) was 0.348, the relative viability ([11]; first compound 0.002 µM) was 0.919 and the relative viability ([11]; first compound 0.006325 µM) was 0.785. The relative viability ([11]; first compound 0.02 µM) was 0.816, the relative viability ([11]; first compound 0.06325 µM) was 0.0533 and the relative viability ([11]; first compound 0.2 µM) was 0.0667.
